Laboratory results from PMC10831936 (iScience, 2024).
pEC50, pIC50: −log10 of the molar value. Entries after “also recorded” stand apart in the source; their conditions may differ.

Tests used:
ERBB2/3 = ERBB2/3 (Homo sapiens, UniProt P04626+P21860); assay: ERBBprofiler barcoded split TEV assay, ERBB2/3
cAMP = assay: GloSensor cAMP assay in PC12 cells; type: cell-based, Rattus norvegicus
ERBB4 [1] = molecular target: T1, ERBB4 (Homo sapiens, UniProt Q15303); assay: Split TEV firefly luciferase assay, ERBB4; type: cell-based; details: PC12 cells; constant EGF-like domain 10 ng/mL; luciferase readout
Description: (§1) 50,000 PC12 cells were seeded per 96-well onto poly-L-lysin (PLL)-coated plates and transfected the following day (day in vitro 1, DIV1) with assay plasmids using Lipofectamine 3000 (Thermo Fisher Scientific). For split TEV assays, plasmids (pcDNA3 or pTag4C backbone) encoding receptor-NTEV-tcs-GV, GRB2-SH2-CTEV (for ERBB receptors) or ARBB2-1-383-CTEV (for HTR2A) (all 10 ng/well), and the p10xUAS-luc2 reporter plasmid (10 ng/well) were used. For pathway assays, the receptor plasmids (15 ng/well) and pathway reporter plasmids (15 ng/well) pEGR1p-luc2 for monitoring MAPK signaling, pCRE-CMVmin-luc2 for monitoring cAMP/Ca^2+ signaling, or p6xNFAT-CMVmin-luc2 for Ca^2+ signaling were used. Transient transfections were conducted according to the manufacturer’s instructions. On DIV2, cells were starved in medium containing 1% FCS for 16 h. […] In the case of antagonist assays, compounds were added at increasing doses together with the stimulus. Cells were lysed in 1x passive lysis buffer (Promega) and subjected to a firefly luciferase assay using a self-made substrate for firefly luciferase.[100] Luciferase activity was analyzed in a Mithras LB 940 Multimode Microplate Reader (Berthold Technologies). All assays were run in 96-well plates using six replicates per condition.

[2] = system: ERBB receptors, HTR2A, and downstream signaling pathways; assay: ERBBprofiler multiplexed barcoded assay, overall statements across all receptor batches and sensors; details: 10 μM compound; PC12 cells; stimulation mix
calcium = assay: Fluo-4 AM calcium assay in PC12 cells; type: cell-based, Rattus norvegicus; details: stimulation mix
HTR2A EGR1p = assay: ERBBprofiler barcoded EGR1p pathway sensor, HTR2A co-transfected; details: Rattus norvegicus, PC-12, 6 h, read-out: HTR2A EGR1p IC50
EGR1p (ERBB4) = assay: EGR1p pathway sensor luciferase assay, ERBB4 transfected; type: cell-based, Rattus norvegicus; details: Rattus norvegicus, PC-12; PC12 cells; constant EGF-like domain 10 ng/mL; luciferase readout; read-out: ERBB4 downstream MAPK signaling IC50, EGR1p sensor luciferase
Description: as §1

HTR2A NFAT = assay: ERBBprofiler barcoded NFAT pathway sensor, HTR2A co-transfected; details: Rattus norvegicus, PC-12, 6 h, read-out: HTR2A NFAT IC50
ERBB2/3 EGR1p = assay: ERBBprofiler barcoded EGR1p pathway sensor, ERBB2/3 co-transfected; details: Rattus norvegicus, PC-12, 6 h, read-out: ERBB2/3 EGR1p IC50
ERBB4 [3] = molecular target: T1, ERBB4; assay: ERBBprofiler barcoded split TEV assay, ERBB4; details: ERBB4 UAS (split TEV) IC50, PC12 cells; constant EGF 30 ng/mL, EGFld 10 ng/mL, serotonin 1 μM; 6 h; barcode readout; relative IC50
HTR2A = HTR2A (Homo sapiens, UniProt P28223); assay: ERBBprofiler barcoded split TEV assay, HTR2A
[4] = system: EGR1p (MAPK signaling), EGFR; assay: EGR1p pathway sensor luciferase assay, EGFR; type: cell-based, Rattus norvegicus; details: Rattus norvegicus, PC-12; read-out: EGFR downstream MAPK signaling IC50, EGR1p sensor luciferase
Description: as §1

phospho-ERK1/2 = assay: Western blot of p-ERK1/2 in T-47D cells (EGFld stimulated); type: cell-based; details: Homo sapiens, T47D, compound 1 h, EGFld 10 ng/mL 5 min, read-out: p-ERK1/2 IC50 (ERBB4), Western blot quantification
Description: (§2) Phosphorylation levels of EGFR were assessed[37] in A549 cells, while phosphorylation levels of ERBB4 were assessed in T-47D cells. Before stimulation experiments were performed, both cell types were starved overnight in 1% FCS and compounds were incubated for 1 h. […] For lysis, cells were washed 1x with PBS and lysed in a Triton X- lysis buffer (1% Triton X-100, 50 mM Tris pH7.5, 150 mM NaCl, 1 mM EGTA) containing the Complete protease inhibitor cocktail (Roche) and PhosSTOP phosphatase inhibitor (Roche). Briefly, cells were lysed and kept on ice for 10 min, sonicated 3x for 10 s at 4°C, and denatured for 10 min at 70°C. The Mini-PROTEAN Tetra Electrophoresis System and Trans-Blot Turbo Botting System (both Bio-Rad) were used for running and blotting protein gels. […] Total EGFR and ERBB4 protein levels were determined using an anti-EGFR antibody (RRID: AB_10920395) (clone A-10, dilution 1:1000, sc-373746, Santa Cruz Biotechnology) and an anti-ERBB4 antibody (RRID: AB_731579) (clone E200, dilution 1:1000, ab32375, Abcam). […] Tubulin levels were determined using an anti-Tubulin antibody (RRID: AB_477579) (dilution 1:2000, No. T 5168, Sigma-Aldrich). For quantification, phosphorylation levels of p-EGFR relative to EGFR as well as p-ERBB4 relative to ERBB4 were calculated using the Lukemiller protocol (http://lukemiller.org/index.php/2010/11/analyzing-gels-and-western-blots-with-image-j/). […]

phospho-ERBB4 = molecular target: T2, phospho-ERBB4 (Homo sapiens, UniProt Q15303); assay: Western blot of p-ERBB4 in T-47D cells; type: cell-based; details: compound 1 h, EGFld 10 ng/mL 5 min, read-out: p-ERBB4 IC50, Western blot quantification
T2 construct: T-47D cells, which endogenously express ERBB4; host or cells: T-47D cells
Description: as §2

T1 sequence (Q15303 26-1308): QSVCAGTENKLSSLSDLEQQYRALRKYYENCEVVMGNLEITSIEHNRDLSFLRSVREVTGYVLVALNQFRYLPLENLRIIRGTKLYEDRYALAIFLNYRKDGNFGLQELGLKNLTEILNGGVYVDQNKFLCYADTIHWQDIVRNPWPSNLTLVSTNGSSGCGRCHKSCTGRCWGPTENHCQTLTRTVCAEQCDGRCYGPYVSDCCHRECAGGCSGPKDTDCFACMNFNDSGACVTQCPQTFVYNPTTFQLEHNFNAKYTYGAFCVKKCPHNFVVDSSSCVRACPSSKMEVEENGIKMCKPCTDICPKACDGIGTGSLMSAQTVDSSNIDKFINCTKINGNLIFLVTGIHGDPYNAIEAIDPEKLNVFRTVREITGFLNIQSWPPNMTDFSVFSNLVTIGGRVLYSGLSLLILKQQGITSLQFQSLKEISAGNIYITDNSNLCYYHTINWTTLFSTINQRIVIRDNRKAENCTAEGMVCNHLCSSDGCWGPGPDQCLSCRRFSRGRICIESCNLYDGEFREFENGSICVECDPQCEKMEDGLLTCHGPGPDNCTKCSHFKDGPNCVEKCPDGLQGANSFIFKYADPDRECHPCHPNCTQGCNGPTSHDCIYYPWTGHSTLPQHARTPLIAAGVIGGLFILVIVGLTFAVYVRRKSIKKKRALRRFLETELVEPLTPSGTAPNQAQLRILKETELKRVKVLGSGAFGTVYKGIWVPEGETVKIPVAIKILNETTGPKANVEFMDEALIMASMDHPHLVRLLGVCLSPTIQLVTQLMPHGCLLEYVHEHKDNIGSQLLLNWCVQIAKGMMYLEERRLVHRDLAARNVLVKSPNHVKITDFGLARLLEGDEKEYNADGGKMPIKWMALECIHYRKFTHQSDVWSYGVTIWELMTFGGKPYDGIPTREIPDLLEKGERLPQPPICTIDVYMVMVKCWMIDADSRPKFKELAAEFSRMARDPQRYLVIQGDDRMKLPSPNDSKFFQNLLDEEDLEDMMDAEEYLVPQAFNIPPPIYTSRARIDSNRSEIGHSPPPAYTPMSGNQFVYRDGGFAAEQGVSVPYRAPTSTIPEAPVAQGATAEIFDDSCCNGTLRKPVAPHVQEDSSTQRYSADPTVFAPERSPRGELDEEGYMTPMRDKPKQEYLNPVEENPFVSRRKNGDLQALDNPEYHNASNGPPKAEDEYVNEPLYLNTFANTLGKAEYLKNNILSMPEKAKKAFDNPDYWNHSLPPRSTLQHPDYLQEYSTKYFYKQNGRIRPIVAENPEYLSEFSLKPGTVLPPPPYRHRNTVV
Sequence of HTR2A (P28223 whole entry): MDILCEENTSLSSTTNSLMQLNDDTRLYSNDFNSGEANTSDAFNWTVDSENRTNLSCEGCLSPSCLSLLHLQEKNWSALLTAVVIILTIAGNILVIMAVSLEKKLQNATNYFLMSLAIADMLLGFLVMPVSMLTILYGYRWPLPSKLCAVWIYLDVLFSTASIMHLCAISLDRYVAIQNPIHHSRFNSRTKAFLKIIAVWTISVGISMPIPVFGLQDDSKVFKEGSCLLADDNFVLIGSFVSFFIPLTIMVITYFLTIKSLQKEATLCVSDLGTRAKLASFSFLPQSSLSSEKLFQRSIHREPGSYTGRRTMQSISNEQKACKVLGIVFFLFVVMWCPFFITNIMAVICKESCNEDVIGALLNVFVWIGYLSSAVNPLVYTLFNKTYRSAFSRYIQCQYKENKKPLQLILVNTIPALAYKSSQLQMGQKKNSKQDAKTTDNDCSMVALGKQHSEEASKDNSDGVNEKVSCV
Sequence of ERBB2/3 (P04626 23-1255): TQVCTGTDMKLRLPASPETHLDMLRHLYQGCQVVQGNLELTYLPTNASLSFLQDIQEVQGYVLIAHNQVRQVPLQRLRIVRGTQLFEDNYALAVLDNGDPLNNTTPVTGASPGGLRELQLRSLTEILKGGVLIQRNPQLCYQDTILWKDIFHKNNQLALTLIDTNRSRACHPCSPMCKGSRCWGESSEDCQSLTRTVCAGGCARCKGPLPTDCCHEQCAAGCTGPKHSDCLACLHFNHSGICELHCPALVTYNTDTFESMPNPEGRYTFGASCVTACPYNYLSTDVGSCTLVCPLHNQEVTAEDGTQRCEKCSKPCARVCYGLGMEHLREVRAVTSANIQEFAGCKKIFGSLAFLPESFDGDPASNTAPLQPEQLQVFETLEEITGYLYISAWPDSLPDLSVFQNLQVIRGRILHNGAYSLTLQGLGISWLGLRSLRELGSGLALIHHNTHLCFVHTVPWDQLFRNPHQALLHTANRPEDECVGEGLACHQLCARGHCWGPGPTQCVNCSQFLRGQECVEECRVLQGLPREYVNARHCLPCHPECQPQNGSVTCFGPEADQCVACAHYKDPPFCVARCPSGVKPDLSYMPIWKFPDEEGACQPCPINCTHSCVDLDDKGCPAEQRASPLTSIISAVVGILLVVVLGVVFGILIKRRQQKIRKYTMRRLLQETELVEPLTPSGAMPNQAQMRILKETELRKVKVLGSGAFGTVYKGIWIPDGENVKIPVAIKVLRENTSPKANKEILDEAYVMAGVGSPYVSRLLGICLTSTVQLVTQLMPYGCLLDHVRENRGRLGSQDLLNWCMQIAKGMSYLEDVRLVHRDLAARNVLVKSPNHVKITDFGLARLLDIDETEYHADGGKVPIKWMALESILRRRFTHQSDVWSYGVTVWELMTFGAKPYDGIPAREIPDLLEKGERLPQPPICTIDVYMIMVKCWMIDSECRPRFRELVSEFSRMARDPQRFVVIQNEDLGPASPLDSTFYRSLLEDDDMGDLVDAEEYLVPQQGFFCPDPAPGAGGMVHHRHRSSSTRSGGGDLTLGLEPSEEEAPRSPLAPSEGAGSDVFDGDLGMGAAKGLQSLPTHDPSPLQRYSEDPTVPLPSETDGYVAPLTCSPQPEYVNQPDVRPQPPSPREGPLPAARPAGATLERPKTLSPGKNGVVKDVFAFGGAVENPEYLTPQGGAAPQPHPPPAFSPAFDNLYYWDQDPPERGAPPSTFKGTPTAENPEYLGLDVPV
Sequence of ERBB2/3 (P21860 20-1342): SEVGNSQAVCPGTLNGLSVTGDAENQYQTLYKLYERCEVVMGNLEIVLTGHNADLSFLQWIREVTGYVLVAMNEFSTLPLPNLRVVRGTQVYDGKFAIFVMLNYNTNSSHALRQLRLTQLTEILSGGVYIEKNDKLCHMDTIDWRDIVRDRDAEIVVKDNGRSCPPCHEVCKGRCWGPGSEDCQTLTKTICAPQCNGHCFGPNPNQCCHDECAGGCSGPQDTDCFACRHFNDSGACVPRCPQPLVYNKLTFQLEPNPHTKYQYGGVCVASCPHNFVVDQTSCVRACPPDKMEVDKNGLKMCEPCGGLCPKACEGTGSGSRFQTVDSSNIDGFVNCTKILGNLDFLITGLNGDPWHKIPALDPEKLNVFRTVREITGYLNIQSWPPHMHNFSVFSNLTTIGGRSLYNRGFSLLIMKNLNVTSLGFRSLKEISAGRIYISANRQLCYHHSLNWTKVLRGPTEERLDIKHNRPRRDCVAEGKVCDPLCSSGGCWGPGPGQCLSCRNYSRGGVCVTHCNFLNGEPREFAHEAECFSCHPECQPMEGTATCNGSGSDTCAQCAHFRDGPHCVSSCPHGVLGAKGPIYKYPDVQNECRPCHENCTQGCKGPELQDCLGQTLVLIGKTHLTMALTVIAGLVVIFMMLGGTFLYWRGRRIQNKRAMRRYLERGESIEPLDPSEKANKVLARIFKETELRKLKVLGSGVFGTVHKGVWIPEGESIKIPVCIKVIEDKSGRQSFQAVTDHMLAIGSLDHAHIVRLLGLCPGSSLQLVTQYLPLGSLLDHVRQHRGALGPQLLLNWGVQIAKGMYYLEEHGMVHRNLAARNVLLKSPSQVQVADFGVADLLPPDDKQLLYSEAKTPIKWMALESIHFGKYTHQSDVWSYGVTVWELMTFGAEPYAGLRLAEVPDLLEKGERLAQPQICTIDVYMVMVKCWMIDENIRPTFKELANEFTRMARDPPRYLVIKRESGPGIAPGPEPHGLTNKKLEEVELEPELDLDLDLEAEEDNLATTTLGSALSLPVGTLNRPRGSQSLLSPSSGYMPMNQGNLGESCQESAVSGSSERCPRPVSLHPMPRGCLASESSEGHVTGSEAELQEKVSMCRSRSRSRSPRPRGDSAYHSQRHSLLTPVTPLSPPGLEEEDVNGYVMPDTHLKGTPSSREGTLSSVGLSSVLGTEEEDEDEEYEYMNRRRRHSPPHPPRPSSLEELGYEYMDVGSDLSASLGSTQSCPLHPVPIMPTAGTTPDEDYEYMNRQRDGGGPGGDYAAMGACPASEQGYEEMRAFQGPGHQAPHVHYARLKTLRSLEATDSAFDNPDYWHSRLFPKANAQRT
T2 sequence (Q15303 26-1308): as the sequence (Q15303 26-1308) above

pIC50 (ERBB2/3)	pIC50 (ERBB4 [1])	pIC50 (HTR2A EGR1p)	pIC50 (EGR1p (ERBB4))	pIC50 (HTR2A NFAT)	pIC50 (ERBB2/3 EGR1p)	pIC50 (ERBB4 [3])	pIC50 (HTR2A)	pIC50 [4]	pIC50 (phospho-ERK1/2)	pIC50 (phospho-ERBB4)	pEC50 (cAMP; Rattus norvegicus, PC-12, 0.25 h, constant stimulation mix, 15 min, cAMP increase)	SMILES	effect on cAMP levels (GloSensor) (cAMP)	CRE sensor response at high compound concentration (barcoded) [2]	effect on calcium levels (Fluo-4 AM) (calcium)	compound concentration resulting in elevated cAMP (GloSensor) (cAMP; stimulation mix) [µM]
6.69	6.59	7.49	6.42	7.19	7.52	6.18	7.77	7.03	6.83	7.00		COc1cc2ncnc(Nc3cccc(Cl)c3)c2cc1OC [AG1478, AG-1478 (Tyrphostin AG-1478)]	did not cause any increase	did not cause any increased CRE sensor activities	did not cause any increase	
7.04	6.49	6.80	6.55	6.24	6.92	6.93	6.74	6.35	5.30	6.46	5.72	CCOc1cc2ncc(C#N)c(Nc3ccc(OCc4ccccn4)c(Cl)c3)c2cc1NC(=O)/C=C/[C@H]1CCCN1C [Pyrotinib]		upregulation of the CRE sensor; also recorded: upregulated CRE sensor response	but not calcium levels	≥ 3
